Assays:
Type in all cases: cell-based
[1] = system: constitutive NF-κB signaling in OCI-Ly10 cells; test: Constitutive NF-κB signaling in ABC DLBCL cells, western blot; conditions: 3.5 hours
Description: OCI-Ly10 cells were treated with the indicated concentrations of NSC697923 for 3 hours. The levels of Ubc13˜Ub conjugate were analyzed by western blotting using a Ubc13-specific antibody as described in FIG. 4B. […] OCI-Ly10 cells were treated with DMSO (0.1%) or the indicated concentrations of NSC697923 for 3.5 hours. The levels of the indicated proteins were analyzed by western blotting with the respective antibodies.

[2] = system: p53 signaling in OCI-Ly10 cells; test: Nuclear p53 and p21 expression, western blot; conditions: 3.5 hours
Description: OCI-Ly10 cells were treated with indicated concentrations of NSC697923 for 3.5 hours. The level of p53 in the nuclear extract and the level of p21 in the whole cell lysates were analyzed by western blotting.

[3] = system: K63-linked ubiquitination and repair protein recruitment in U2OS cells; test: DNA double-strand break focus formation after γ-irradiation; conditions: 1 μM, γ-irradiated 10 Gy
Description: Osteosarcoma U2OS cells were pretreated with 1 μM NSC697923 for 1 hour before γ-irradiated (10 Gy). 30 minutes after irradiation, the cells were fixed and stained with the monoclonal antibody FK2, which recognizes protein-conjugated, but not free, ubiquitin and marks the foci formed by K63-linked ubiquitinated proteins at sites of DSBs. […] U2OS cells were treated as described in FIG. 13A except that the focus formation of the indicated proteins is detected with their respective antibodies.

multiple myeloma cells = test: Growth of multiple myeloma cells, trypan blue exclusion assay; conditions: 24 hours
Description: (§1) The indicated multiple myeloma cells were seeded at 300,000 cells/mL in 6-well plates and cultured in the presence of DMSO (0.2%, control) or various concentrations of NSC697923 for 24 hours. The live and dead cells were counted using the trypan blue exclusion assay. Shown are the means from 3 separate experiments. The average number of live cells in the control was set at 100.
as §1, with “It has been shown that multiple myeloma cells also depend on NF-kB signaling for survival. It was thus hypothesized that these cells may also sensitive to NSC697923 treatment. […] The indicated” for “The indicated”

In the case of Cc1ccc(S(=O)(=O)c2ccc([N+](=O)[O-])o2)cc1 [NSC697923, 2-nitro-5-tosylfuran], the “expression of Mc1-1” value [1] is reported as “is inhibited”, the “expression of p100” value [1] is reported as “is inhibited” and the “phosphorylation of IKK” value [1] is reported as “inhibited phosphorylation”. For the same compound, the “phosphorylation of IκBα” value [1] was “inhibited phosphorylation”, the “nuclear level of p53 protein” value [2] was “increased” and the p21 expression [2] was “increased”. For the same compound, the FK2 focus formation [3] was “inhibition of FK2 focus formation”, the “recruitment of 53BP1 to sites of DNA double-strand breaks” value [3] was “inhibits recruitment” and the “recruitment of BRCA1 to sites of DNA double-strand breaks” value [3] was “inhibits recruitment”. For the same compound, the “growth of multiple myeloma cells” value (multiple myeloma cells) was “inhibits the growth of multiple myeloma cells”.
